From paper PMC12017303 (Science Advances, 2025)
Converted amounts (≈) assume the structure as drawn.

Columns and labels:
[1] = format: physicochemical; conditions: 10 μM
[2] = tested on: SARS-CoV-2 XBB.1.16 in A549-ACE2^h; assay: microbe, parasite or virus in culture; format: cell-based; conditions: Severe acute respiratory syndrome coronavirus 2, read-out: Viral replication in A549-ACE2^h EC50: XBB.1.16
[3] = male, CD-1, mouse, in vivo
[4] = mouse, pH 7.4
[5] = target: SARS-CoV-1 M^Pro (Severe acute respiratory syndrome coronavirus, UniProt P0C6X7); assay: biochemical
[6] = in vivo; conditions: male, CD-1, mouse; for AUC(0-t): AUClast
[7] = tested on: human cytochrome P450 (CYP) isoforms; conditions: 10 μM
[8] = tested on: SARS-CoV-2 BA.2 (omicron); assay: microbe, parasite or virus in culture; format: cell-based; conditions: Severe acute respiratory syndrome coronavirus 2, Vero C1008
[9] = tested on: SARS-CoV-2 WA.1 (icSARS-CoV-2-mNG) in A549-ACE2^h; assay: microbe, parasite or virus in culture; format: cell-based; conditions: Severe acute respiratory syndrome coronavirus 2, read-out: Viral replication in A549-ACE2^h EC50: WA.1
[10] = tested on: HCoV Beta OC43; assay: microbe, parasite or virus in culture; format: cell-based; conditions: Betacoronavirus 1, OC43
[11] = target: SARS-CoV-2 M^Pro (Cys^145) (Severe acute respiratory syndrome coronavirus 2, UniProt P0DTD1); format: binding
[12] = tested on: HCoV Alpha 229E; assay: organism not typed; format: cell-based, HCoV 229E; conditions: Huh-7
[13] = tested on: MERS-CoV EMC; assay: microbe, parasite or virus in culture; format: cell-based; conditions: Middle East respiratory syndrome-related coronavirus, Vero C1008
[14] = tested on: SARS-CoV-2 BA.2.86.1 replicon in Vero ACE2 TMPRSS2; assay: microbe, parasite or virus in culture; format: cell-based; conditions: Severe acute respiratory syndrome coronavirus 2, Vero, read-out: Replicon replication in Vero ACE2 TMPRSS2 EC50: BA.2.86.1
[15] = human, pH 7.4
[16] = tested on: SARS-CoV-2 WA.1 replicon in Vero ACE2 TMPRSS2; assay: microbe, parasite or virus in culture; format: cell-based; conditions: Severe acute respiratory syndrome coronavirus 2, Vero, read-out: Replicon replication in Vero ACE2 TMPRSS2 EC50: WA.1
[17] = tested on: SARS-CoV Urbani; assay: microbe, parasite or virus in culture; format: cell-based; conditions: Severe acute respiratory syndrome coronavirus, Vero C1008
[18] = tested on: panel of 40 receptors, ion channels (including the hERG channel), and serine and cysteine proteases
[19] = physchem; conditions: pH 7.4, aqueous buffer, kinetic from dmso stock
[20] = tested on: SARS-CoV-2 XBB.1.5 in A549-ACE2^h; assay: microbe, parasite or virus in culture; format: cell-based; conditions: Severe acute respiratory syndrome coronavirus 2, read-out: Viral replication in A549-ACE2^h EC50: XBB.1.5
[21] = tested on: SARS-CoV-2 EG.5.1 in A549-ACE2^h; assay: microbe, parasite or virus in culture; format: cell-based; conditions: Severe acute respiratory syndrome coronavirus 2, read-out: Viral replication in A549-ACE2^h EC50: EG.5.1
[22] = target: SARS-CoV-2 M^Pro (Severe acute respiratory syndrome coronavirus 2, UniProt P0DTD1); format: biochemical
[23] = in vitro; conditions: plasma
[24] = tested on: P-gp (MDR1); assay: in vitro; conditions: dog
[25] = in vitro; conditions: mouse, microsomes, pH 7.4

Which results are given for C#CCn1c(-c2ccc(Cl)c(Cl)c2)c(-n2nnc3cc(F)c(F)cc32)c(=O)n(-c2cncc3ccccc23)c1=O [AVI-4694]?
particle formation by dynamic light scattering (DLS) [1]: formed particles; EC50 [2]: 0.00032 µM; Mouse F [3]: 64; AUClast ([3]; po, 50 mg/kg): 56500 ng·h/mL; Plasma T½ ([3]; po, 50 mg/kg): 1.87 h; MLM T1/2 [4]: > 2 h; IC50 [5]: 0.066 µM; bioavailability ([6]; F): 63.5%; MRT inf ([6]; iv, 10 mg/kg): 2.6 h; clearance ([6]; iv, 10 mg/kg): 9.37 mL/min/kg; half-life ([6]; iv, 10 mg/kg): 1.72 h; AUC(0-inf) ([6]; iv, 10 mg/kg, AUCINF): 17800 ng·h/mL; AUC(0-t) ([6]; iv, 10 mg/kg): 17300 ng·h/mL; Vd ([6]; iv, 10 mg/kg, Vss): 1.46 L/kg; half-life ([6]; po, 50 mg/kg): 1.87 h; AUC(0-inf) ([6]; po, 50 mg/kg, AUCINF): 56500 ng·h/mL; AUC(0-inf) ([6]; po, 50 mg/kg, AUCinf): 56500 ng·h/mL; AUC(0-t) ([6]; po, 50 mg/kg): 56500 ng·h/mL; Cmax ([6]; po, 50 mg/kg, CMax): 5770 ng/mL; Cmax ([6]; po, 50 mg/kg, Cmax): 5770 ng/mL; Tmax ([6]; po, 50 mg/kg, TMax): 4 h; Tmax ([6]; po, 50 mg/kg, Tmax): 4 h; inhibition of several CYP isoforms [7]: > 50%; EC50 [8]: 0.05 µM; EC90 [8]: 0.045 µM; EC50 [9]: 0.071 µM; EC50 [10]: 0.055 µM; EC90 [10]: 0.061 µM; covalent adduct by whole protein MS [11]: mass shifts consistent with modification at a single site; EC50 [12]: > 1.6 µM; EC90 [12]: > 1.6 µM; EC50 [13]: 0.045 µM; EC50 [14]: 0.012 µM; HLM T1/2 [15]: > 2 h; EC50 [16]: 0.013 µM; EC50 [17]: 0.052 µM; EC90 [17]: 0.091 µM; off-target activity across panel, result in words [18]: low-micromolar inhibition of nine enzymes/receptors in the panel; solubility [19]: 2.4 µM (≈ 1.38 µg/mL); EC50 [20]: 0.0003 µM; EC50 [21]: 0.00022 µM; M^Pro activity after dialysis [22]: activity was not regained; fraction unbound ([23]; pH 7.4, PPB): 0.003; fraction unbound ([23]; pH 7.4, plasma protein binding (PPB)): < 0.01; Papp B→A ([24]; MDCK-MDR1): 13.8 ×10⁻⁶ cm/s; Papp A→B ([24]; MDCK-MDR1, MDCK AB): 8.2 ×10⁻⁶ cm/s; half-life [25]: 1.6 h
